Experimental data: patent US4304726A, “Process for the preparation of cholesterol derivatives” (The Green Cross Corporation, priority 1979, dated 1981)

What was measured:
PHA reaction = experiment: PHA reaction, 50% inhibitory concentration (immunosuppressive action in vitro); assay type: cell-based; conditions: ester form as emulsion with polyoxyethylene-polyoxypropylene copolymer, salt form as aqueous solution; for IC50: read-out: Concentration for 50% inhibition
Experimental: In accordance with the PHA method by Cooparband et al. [The Journal of Immunology, 109, (1), 154 (1972)], the compounds of this invention were tested for the 50% inhibitory concentration in the PHA reaction. Also, the effect of IRA (Immunoregulatory α-globulin) obtained according to the method of Occhino et al. [The Journal of Immunology, 110, (3), 685 (1973)] was shown as comparative test data. Among these compounds, those of the ester form were used in emulsion employing a copolymer of polyoxyethylene-polyoxypropylene having molecular weight of 8350 as a surfactant, and those of the salt form were used as aqueous solutions.

[1] = test system: carrageenin edema of hind footpad; experiment: Carrageenin hind footpad edema in rats (anti-inflammatory action); assay type: in vivo; conditions: 50 mg/kg intraperitoneally 1 h before carrageenin, 4 hours after inoculation
Experimental: Using rats, each of derivatives of 7-hydroxycholesterol and of 7-ketocholesterol shown in Table 2 was administered intraperitoneally to 5 rats of each group in a dose of 50 mg/kg (physiologically isotonic aqueous solution with a concentration of 2.0% by weight), and one hour after the administration, each 0.05 ml of 1% aqueous carrageenin solution as an inflammation-causing substance was subcutaneously inoculated at the hind footpad.
After 4 hours from the inoculation of carrageenin, the size of edema caused on the footpad was measured by means of a volume differential meter to compare with that of the control group which was given to the physiological sodium chloride aqueous solution.
The ester samples administered were in the form of emulsion employing a phospholipid as a surfactant, and the salt samples were in the form of physiologically isotonic solution.

rats = experiment: Acute toxicity test in rats; assay type: in vivo; conditions: intraperitoneal, 250, 500, 750 or 1000 mg/kg, 5-days' observation
Experimental: Acute toxicity tests were performed using rats, each group consisting of 5 rats each weighing approximately 200 g, on 7-ketocholesteryl hydrogen succinate, 7-ketocholesteryl hydrogen phthalate, sodium 7-ketocholesteryl succinate, ammonium 7-ketocholesteryl succinate, 7-hydroxycholesteryl hydrogen succinate, 7β-hydroxycholesteryl hydrogen phthalate, sodium 7-hydroxycholesteryl succinate, and sodium 7β-hydroxycholesteryl phthalate. Each of the compounds of salt type was made into a physiologically isotonic aqueous solution, and each of the compounds of ester type was dispersed with a surfactant and by ultrasonic wave treatment to give a uniform dispersion. Thereafter, each of them was administered intraperitoneally in an amount of 250 mg/kg, 500 mg/kg, 750 mg/kg, or 1000 mg/kg. After 5-days' observation, no rat died.

[2] = Japanese Kokai No. 104,735/1978, cited from earlier work; for immunosuppressive effect: particularly cell-mediated

Row | SMILES | IC50 (PHA reaction) [µg/mL] | Swelling rate of edema ([1]; control 82, 50 mg/kg) [%] | death of rats (acute toxicity) (rats) | anti-inflammatory effect [2] | immunosuppressive effect [2] | Swelling rate of edema ([1]; control 82) [%] | Concentration for 50% inhibition (PHA reaction) [µg/mL]
1 | CC(C)CCC[C@@H](C)[C@H]1CC[C@H]2[C@@H]3C(O)C=C4C[C@@H](OC(=O)CCC(=O)O)CC[C@]4(C)[C@H]3CC[C@]12C (stereo partly shown) [7-hydroxycholesteryl hydrogen succinate] | 3 | 29 | no rat died |  |  |  | 
2 | CC(C)CCC[C@@H](C)[C@H]1CC[C@H]2[C@@H]3C(O)C=C4C[C@@H](O)CC[C@]4(C)[C@H]3CC[C@]12C (stereo partly shown) [7-hydroxycholesterol] |  |  |  | effective | effective as immunosuppressive agent |  | 
3 | CC(C)CCC[C@@H](C)[C@H]1CC[C@H]2[C@@H]3C(=O)C=C4C[C@@H](OC(=O)c5ccccc5C(=O)O)CC[C@]4(C)[C@H]3CC[C@]12C [7-ketocholesteryl hydrogen phthalate] | 4 |  | no rat died |  |  | 28 | 
4 | CC(C)CCC[C@@H](C)[C@H]1CC[C@H]2[C@@H]3C(O)C=C4C[C@@H](OC(=O)CCC(=O)O)CC[C@]4(C)[C@H]3CC[C@]12C (stereo partly shown) [Sodium 7-hydroxycholesteryl succinate, sodium 7-hydroxycholesteryl succinate] |  | 28 | no rat died |  |  |  | 3
5 | CC(C)CCC[C@@H](C)[C@H]1CC[C@H]2[C@@H]3[C@@H](O)C=C4C[C@@H](OC(=O)c5ccccc5C(=O)O)CC[C@]4(C)[C@H]3CC[C@]12C [Sodium 7β-hydroxycholesteryl phthalate] |  | 31 | no rat died |  |  |  | 4
6 | CC(C)CCC[C@@H](C)[C@H]1CC[C@H]2[C@@H]3C(=O)C=C4C[C@@H](OC(=O)CCC(=O)O)CC[C@]4(C)[C@H]3CC[C@]12C [7-ketocholesteryl hydrogen succinate] | 4 |  | no rat died |  |  | 30 | 
7 | CC(C)CCC[C@@H](C)[C@H]1CC[C@H]2[C@@H]3C(=O)C=C4C[C@@H](O)CC[C@]4(C)[C@H]3CC[C@]12C [7-ketocholesterol] |  |  |  | effective | effective as immunosuppressive agent |  | 
8 | CC(C)CCC[C@@H](C)[C@H]1CC[C@H]2[C@@H]3[C@@H](O)C=C4C[C@@H](OC(=O)c5ccccc5C(=O)O)CC[C@]4(C)[C@H]3CC[C@]12C [7β-hydroxycholesteryl hydrogen phthalate] | 3 | 30 | no rat died |  |  |  | 
